Activity calls are given as the source filed them. The rule behind the calls is not given here.
Tests used:
[1] = test system: Trypanosoma brucei brucei; experiment: Trypanocidal activity against Trypanosoma brucei brucei after 48 hrs; format: functional, organism-based
J774 [2] = experiment: Cytotoxicity against J774.1 cell line after 48 hrs; format: functional, cell-based; conditions: Mus musculus, J774, 48 h
J774 [3] = experiment: Selectivity index, IC50 for J774.1/IC50 for Trypanosoma brucei brucei; format: functional
[4] = target: Rhodesain (Trypanosoma brucei rhodesiense) (UniProt Q95PM0); experiment: Inhibition of Trypanosoma brucei rhodesiense rhodesain at 200 uM
Sequence of Rhodesain (Trypanosoma brucei rhodesiense) (Q95PM0 1-450): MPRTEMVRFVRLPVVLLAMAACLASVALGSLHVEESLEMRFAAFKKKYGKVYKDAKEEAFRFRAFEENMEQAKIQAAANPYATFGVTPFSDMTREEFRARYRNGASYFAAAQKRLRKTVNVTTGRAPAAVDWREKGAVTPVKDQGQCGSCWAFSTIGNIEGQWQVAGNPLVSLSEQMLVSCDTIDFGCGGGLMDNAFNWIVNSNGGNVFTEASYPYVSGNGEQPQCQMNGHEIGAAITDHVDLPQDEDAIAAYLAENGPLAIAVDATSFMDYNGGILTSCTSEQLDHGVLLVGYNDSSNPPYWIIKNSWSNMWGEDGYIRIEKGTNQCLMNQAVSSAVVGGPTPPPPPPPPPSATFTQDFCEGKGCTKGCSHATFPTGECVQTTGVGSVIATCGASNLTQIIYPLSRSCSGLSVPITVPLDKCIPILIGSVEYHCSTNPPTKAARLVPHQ

[5] = target: Rhodesain (Trypanosoma brucei rhodesiense) (UniProt Q95PM0); experiment: Inhibition of Trypanosoma brucei rhodesiense rhodesain at 140 uM
J774 [6] = experiment: Cytotoxicity against J774.1 cell line after 72 hrs; format: functional, cell-based; conditions: Mus musculus, J774, 72 h
Rhodesain [7] = target: T1, Rhodesain (Trypanosoma brucei rhodesiense, UniProt Q95PM0); experiment: Inhibition of Trypanosoma brucei rhodesiense rhodesain in presence of 31.6 uM substrate Cbz-Phe-Arg-AMC
T1 sequence (Q95PM0 whole entry): as the sequence (Q95PM0 1-450) above

Rhodesain [8] = target: T1, Rhodesain; experiment: Inhibition of Trypanosoma brucei rhodesiense rhodesain

SMILES | IC50 [1] [µM] | MIC [1] [µM] | IC50 (J774 [2]) [µM] | Ratio IC50 (J774 [3]) | inhibition [4] [%] | inhibition [5] | IC50 (J774 [6]) [µM] | Ki (Rhodesain [7]) [µM] | Ki (Rhodesain [8]) [µM]
Cc1ccc(C(=O)Nc2ccc(S(=O)(=O)[O-])c3cc(S(=O)(=O)[O-])cc(S(=O)(=O)[O-])c23)cc1NC(=O)c1cccc(NC(=O)Nc2cccc(C(=O)Nc3cc(C(=O)Nc4ccc(S(=O)(=O)[O-])c5cc(S(=O)(=O)[O-])cc(S(=O)(=O)[O-])c45)ccc3C)c2)c1.[Na+].[Na+].[Na+].[Na+].[Na+].[Na+] [SURAMIN HEXASODIUM] | 0.31 | 1 | > 1000 | >3225 | 31.5 | – | – | – | –
C[C@H](NC(=O)[C@@H](Cc1ccccc1)NC(=O)OC(C)(C)C)C(=O)N1[C@H](C(=O)OCc2ccccc2)[C@H]1C(=O)OCc1ccccc1 | 34.3 | – | – | 1.3 | – | inactive | 43.7 | – | –
CCOC(=O)[C@@H]1[C@@H](C(=O)OCC)N1C(=O)[C@@H]1CN1C(=O)[C@H](CC(C)C)NC(=O)OC(C)(C)C | 25.7 | – | 50 | 1.9 | – | – | – | 0.36 | 0.3

Source: ChEMBL document CHEMBL1147010, “Aziridine-2,3-dicarboxylate inhibitors targeting the major cysteine protease of Trypanosoma brucei as lead trypanocidal agents” (Bioorg Med Chem Lett, 2006)
